Measurements as given in patent US9101569B2, “Methods for the treatment of insulin resistance” (UNIVERSITE DE GENEVE, priority 2010, dated 2015).

Assays:
HFD-induced obese rats [1] = test: High-fat diet-induced obesity rat model, i.c.v. OT infusion: body weight gain and food intake; type: in vivo; conditions: 14 days, compared with saline
Description: The beneficial metabolic effects of OT administration were assayed in the following high-fat diet-induced obesity model in rats.
Male Wistar (300-325 g) rats were purchased from Charles River (L′Arbresle, France) and housed in individual cages under conditions of controlled temperature (22° C.) and illumination (light on: 07:00-19:00 h). They were allowed free access to water and a 45% high fat diet (HFD) (metabolized energy, 4.56 kcal/g) (Ssniff® EF R/M acc. D12451 (I) mod., ssniff Spezialdiaten GmbH, Soest, Germany) for seven weeks. Body weight, food intake and water intake were recorded daily (08:30-09:30 h). All procedures were approved by the Ethic Committee of our University and were in accordance with the Swiss guidelines for animal experimentation.
To study the role of OT on metabolic homeostasis, the above male Wistar rats were rendered obese by 7 weeks of HFD 45% and were intracerebroventricularly (i.c.v.) infused with either OT (1.6 nmol/d) or saline during the last 2 weeks of the experiment.
After three weeks of HFD feeding, rats were submitted to surgical procedures. They were anesthetized with intramuscular injection of ketamine-xylasine (Ketalar®-Rompun®, Parke-Davis and Bayer, Leverkusen, Switzerland) at 40 and 9 mg/kg, respectively, and implanted with a cannula in the right lateral cerebral ventricle fixed on the skull with dental cement, as previously described (Rohner-Jeanrenaud et al., 1989, Endocrinology 124, 733-9). After one week of recovery, the drinking response to i.c.v. injection of Angiotensin II (5 ng/μl) (Novabiochem, Laüfelfingen, Switzerland) was measured to confirm the correct placement of the cannula. At the end of the fifth week of high fat diet feeding, osmotic minipumps (Alzet®, model 2001, Alza Corporation, Cupertino, Calif.) delivering oxytocin (NeoMPS®, Strasbourg, France) or its vehicle (NaCl 0.9%) were subcutaneously implanted and connected to the i.c.v. cannula via a polyethylene catheter, as previously described (Rohner-Jeanrenaud et al., 1989, above). OT was delivered at a dose of 1.6 nmol/day/rat or 16 nmol/day/rat during 14 days. A group of vehicle-infused rats was pair-fed to the amount of food consumed by OT-infused animals in order to assess the effects of OT independently from changes in food intake. The pair-feeding regimen consisted in giving one-third of the daily food amount in the morning and the remaining two-thirds just before onset of darkness. Rats were sacrificed using isoflurane anesthesia (Halocarbon Laboratories, River Edge, N.J.) and rapid decapitation between 09:00 and 13:00 h. Blood samples were collected into EDTA-coated tubes, centrifuged and plasma stored at −20° C. Tissues were rapidly removed, freeze-clamped, and stored at −80° C.

[2] = system: epididymal white adipose tissue (eWAT); test: eWAT endocannabinoid content after i.c.v. OT infusion; type: in vivo, rat
HFD-induced obese rats [3] = test: Glucose tolerance tests after i.c.v. OT infusion; type: in vivo, rat; conditions: after 7 weeks of HFD, i.c.v. 1.6 nmol/d
Description: The impact of OT-induced changes in peripheral lipid metabolism on glucose tolerance and insulin sensitivity was determined by glucose tolerance tests (GTT). Glucose (75 mg/kg body weight) was intraperitoneally administered 4 h after food removal. Blood glucose levels were measured using a glucose meter (One Touch II; LifeScan) from tail blood samples at 0, 15, 30, 60, 90, and 120 min after glucose injection.
Two glucose tolerance tests (GTT) were performed, a first one after […] of HFD (i.e. before the respective saline and OT treatments) and a second one at the end of the 2 week saline or OT infusion (i.e. after 7 weeks of HFD).

HFD-induced obese rats [4] = test: High-fat diet-induced obesity rat model, subcutaneous infusion: body weight gain, food intake, body composition; type: in vivo
Description: Another group of the above male Wistar rats were rendered obese as described above and were subcutaneously infused with saline or OT (NeoMPS®, Strasbourg, France) (50 nmol/day/rat) during 14 days.
(§1) The beneficial metabolic effects of OT administration were assayed in the same high-fat diet induced obesity model in rats as in Example 1 and in PPAR-alpha knockout mice (Lee et al., 1995, Mol. Cell. Biol., 15(6):3012-22). HFD-induced obese animals, saline or OT groups (see conditions under Example 1) were subcutaneously infused via minipumps (Alzet®, as above). OT was delivered at a dose of 50 nmol/day/rat during 14 days.
An EchoMRI-700 quantitative nuclear magnetic resonance (QMR) analyzer (Echo Medical Systems, Houston, Tex.) was used to measure total fat mass and lean body mass in rats at the beginning and the end of the treatment.
The beneficial metabolic effects of administration of an oxytocin derivative according to the invention (Carbetocin) were assessed in the same rat model of high-fat diet induced obesity as in Example 1. HFD-induced obese animals were subcutaneously infused via minipumps (Alzet®, as above) with saline or carbetocin (Bachem) (5 nmol/day/rat or 50 nmol/day/rat) during 14 days.
Body composition parameters were measured by quantitative nuclear magnetic resonance as described in Example 3 at the beginning and 10 days of treatment.

wild-type mice = test: Peripheral OT infusion in wild-type littermate mice; type: in vivo; conditions: peripheral 50 nmol/day over 3 days
Description: as §1
(§2) OT was peripherally administered with 50 nmol/day over 3 days in PPAR-alpha knockout (KO) mice and their wild-type littermates. […] Consistently, OT peripheral infusion promoted an increase in the mRNA expression of PPAR-alpha target genes (Acadm, Acox1, Ehhadh, Ucp3) in wild-type mice, while it had no effect in PPAR-alpha knockouts.

[5] = system: PPAR-alpha knockout (KO) mice; test: Peripheral OT infusion in PPAR-alpha knockout mice; type: in vivo; conditions: peripheral 50 nmol/day over 3 days
Description: as §1, §2

CC[C@H](C)[C@@H]1NC(=O)[C@H](Cc2ccc(O)cc2)NC(=O)[C@@H](N)CSSC[C@@H](C(=O)N2CCC[C@H]2C(=O)N[C@@H](CC(C)C)C(=O)NCC(N)=O)NC(=O)[C@H](CC(N)=O)NC(=O)[C@H](CCC(N)=O)NC1=O [OT, Cys-Tyr-Ile-Gln-Asn-Cys-Pro-Leu-Gly (SEQ ID NO: 1)]
cumulative body weight gain (HFD-induced obese rats [1]; i.c.v. 1.6 nmol/d): more than fifty percent decrease
cumulative food intake (HFD-induced obese rats [1]; i.c.v. 1.6 nmol/d): without any effect
food efficiency (ratio of body weight gain to cumulative food intake) (HFD-induced obese rats [1]; i.c.v. 1.6 nmol/d): marked decrease
cumulative food intake (HFD-induced obese rats [1]; i.c.v. 16 nmol/d): decreased
body weight gain (HFD-induced obese rats [1]; i.c.v. 16 nmol/d, not observed in pair-fed group): significantly lower
eWAT OEA content ([2]; chronic i.c.v. OT 1.6 nmol/d, compared with saline): increased
eWAT content of other endocannabinoids (PEA, AEA, 2-AG) ([2]; chronic i.c.v. OT infusion): not modifying
stimulatory effect on OEA content ([2]; i.c.v. 1.6 nmol/d (lower dose)): 1.3 folds
stimulatory effect on OEA content ([2]; i.c.v. 16 nmol/d): 2 folds
insulin oversecretion during GTT (HFD-induced obese rats [3]): not observed
glucose tolerance (GTT) (HFD-induced obese rats [3]; compared to GTT after 3 weeks of HFD): impairment
food intake (HFD-induced obese rats [4]; s.c. 50 nmol/day, 14 days): decreased
body weight gain (HFD-induced obese rats [4]; s.c. 50 nmol/day, 14 days, not observed in pair-fed group): decreased
fat mass by weighing adipose tissue depots (HFD-induced obese rats [4]; s.c. OT 50 nmol/day): food intake-independent decrease
body weight gain (wild-type mice): significant decrease
mRNA expression of PPAR-alpha target genes (Acadm, Acox1, Ehhadh, Ucp3) (wild-type mice): increase
body weight gain [5]: did not modify
mRNA expression of PPAR-alpha target genes (Acadm, Acox1, Ehhadh, Ucp3) [5]: no effect
